Reference: EP4545547B1, “INSECT NEUROPEPTIDES” (Solasta Bio Limited, priority 2023, dated 2025)
Where a SMILES comes first, the peptide text is derived from it.

Experiments:
Plutella xylostella [1] = assay: Leaf dip assay 1 (based on IRAC susceptibility test method 018, performed by FERA); type: in vivo; settings: unformulated peptide at 2x10^-4 M; Chinese cabbage leaf discs dipped 10 seconds; larvae (2nd/3rd instar); mortality assessed after 120 hours; Figure 4
Method: The assay was carried out based on IRAC susceptibility test method 018 by a contract research organization, FERA Science Ltd. Test insects Larvae (2nd/3rd instar) were sourced from a laboratory culture of P. xylostella. The culture has been maintained in a controlled environment (CE) room with conditions of 25 °C and 16:8 lighting regime on Chinese cabbage plants. Chinese cabbage leaves were used in the bioassays. A CE room set at 25 °C and 60% r.h. with a 16 hour light: 8 hours dark lighting regime, was used. Leaf discs (approximately 35mm in diameter) were cut from fully expanded Chinese cabbage leaves. Each leaf disc was dipped in a separate peptide solution for 10 seconds with gentle agitation and placed on a damp filter paper (underside surface uppermost). There were ten replicates for each treatment and control, with five leaf discs per replicate. The treated discs were then put onto damp filter paper in the base of a Petri dishes (90 mm in diameter, 15 mm high) (underside surface uppermost). Five larvae were then transferred onto the treated leaf discs. The dishes were placed in the CE room and mortality was assessed after 120 hours. Leaf dip assays were performed with SB-P-81, and compared to a negative control vehicle and a current commercial insecticide Gazelle SG (shown as the active Acetamiprid). […]

Plutella xylostella [2] = assay: Leaf dip assay 2 (based on IRAC susceptibility test method 019); type: in vivo; settings: unformulated peptide at 1x10^-4 M; leaf disc on 1% agar; after 96 hours; Figure 6
Method: The assay was carried out based on IRAC susceptibility test method 019 (https://irac-online.org/methods/aphids-adultnymphs/). Fill a small 4 cm wide 3 cm high dish with a 1% agar treatment solution of the active chemical or control (ensuring 1 cm gap between the agar and the lid) and leave to set. Dip a 2.5 cm leaf disc into 3 ml of treatment solution allowing the treatment to coat the leaf. Leave the disc to dry for 1 hour and place onto the set agar. Place insects (Plutella xylostella) onto each of the leaf discs. Each unit is sealed with a close-fitting, ventilated lid. Place the agar dishes in a small plastic tray lined with moist tissue paper and ensure the water trays in the bottom of the incubator are filled with clean water and place within the incubator. An assessment of mortality is made at 72, 96 and 120 hours. Leaf dip assays were performed with SB-P-81, and compared to a negative control vehicle and a current commercial insecticide Chlorantraniliprole. The activity of SB-P-81 is shown in Figure 6; SB-P-81 has good activity whilst being eco-friendly and targeted to specific pests unlike broad spectrum chemical insecticides such as Chlorantraniliprole.

SMILES: CSCC[C@H](NC(=O)[C@H](CO)NC(=O)CNC(=O)CN)C(=O)N[C@H](C(=O)N[C@@H](Cc1ccccc1)C(=O)N[C@@H](CO)C(=O)N1CCC[C@H]1C(=O)N[C@@H](CCCNC(=N)N)C(=O)N[C@@H](CC(C)C)C(N)=O)[C@@H](C)O [SB-P-81, [Hy]-GGSMTFSPRL-[NH2]] (H-GGSMTFSPRL-NH2)
- activity against Plutella xylostella (mortality) (Plutella xylostella [1]): good activity
- activity against Plutella xylostella (mortality) (Plutella xylostella [2]): good activity
